In patent EP3409671B1, “ISOTHIAZOLE DERIVATIVES AS GPR120 AGONISTS FOR THE TREATMENT OF TYPE II DIABETES” (Janssen Pharmaceutica NV, priority 2014, dated 2015):
pEC50: −log10 of the molar value.

Target: T1, long form of human GPR120 (Homo sapiens, UniProt Q5NUL3)
T1 construct: host or cells: PathHunter CHO-K1 GPR120 β-Arrestin Cell Line
T1 sequence (Q5NUL3 1-377 isoform Q5NUL3-1): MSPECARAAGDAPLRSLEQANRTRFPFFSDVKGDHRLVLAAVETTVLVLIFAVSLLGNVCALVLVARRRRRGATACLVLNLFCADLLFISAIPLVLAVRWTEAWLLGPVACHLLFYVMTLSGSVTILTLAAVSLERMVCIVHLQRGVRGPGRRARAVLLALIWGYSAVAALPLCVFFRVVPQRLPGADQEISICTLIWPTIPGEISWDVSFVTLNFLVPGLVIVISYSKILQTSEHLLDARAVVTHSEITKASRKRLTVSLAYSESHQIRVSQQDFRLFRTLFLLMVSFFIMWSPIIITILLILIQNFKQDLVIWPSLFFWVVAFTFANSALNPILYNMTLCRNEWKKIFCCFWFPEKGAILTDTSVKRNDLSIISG
Experiment: Human GPR120 DiscoveRx PathHunter Beta-Arrestin assay, Procedure β-arrestin A
Format: cell-based
Conditions: PathHunter CHO-K1 GPR120 β-Arrestin Cell Line, long form of human GPR120, 3000 cells per well; read-out: hGPR120 β-arrestin A EC50
Description: The binding of an agonist (medium/long chain fatty acids or small molecule agonists) to the G-protein-coupled receptor GPR120 activates phospholipase C, leading to release of intracellular Ca^+2 through the generation of inositol 1,4,5-trisphosphate (InsP3 or IP3). GPR120 activation can also trigger intracellular signaling via recruitment of Beta-Arrestin. In the present method, agonist-induced activation of the human GPR120 receptor is monitored through the use of PathHunter CHO-K1 GPR120 Beta-Arrestin Cell Line engineered by DiscoveRx, as detailed below. […]
Under these conditions, these fragments can interact and form an active Beta-gal enzyme complex through Enzyme Fragment Complementation (EFC). This active Beta-gal complex can enzymatically hydrolyse the substrate to produce a detectable light signal; therefore, activation as a function of agonist concentration can be expressed as an EC50 value to determine relative compound activities. […]
The plates were read on an EnVision instrument, using Protocol name: Luminescence, Plate type: 384 Costar, Measurement height: 3 mm, Measurement time: 1s, Aperture: 384 Plate aperture. The %activity relative to the positive control was calculated using the following equation: %Activity = (Countcompound −Countvehicle)/(Countpostivite control −Countvehicle) × 100% [formula] […]

O=C(O)CCc1ccc(OCc2c(C(F)(F)F)nsc2-c2ccc(Cl)cc2)c(Cl)c1Cl [Cpd 55, 3-(2,3-dichloro-4-[[5-(4-chlorophenyl)-3-(trifluoromethyl)-1,2-thiazol4-yl]methoxy]phenyl) propanoic acid]
pEC50: 6.75

O=C(O)CCc1cc(F)c(OCc2c(Cl)nsc2-c2ccc(Cl)cc2)c(F)c1 [Cpd 75, 3-(4-[[3-chloro-5-(4-chlorophenyl)-1,2-thiazol-4-yl]methoxy]-3,5-difluorophenyl)propanoic acid]
pEC50: 6.85
